Assay results taken from patent US10829520B2, “Beta-hairpin peptidomimetics” (POLYPHOR AG, priority 2015, dated 2020).
*1 amine or outer side, *2 acyl side, *3 side chain or, on linkers, in order; H or OH if unused. Where a SMILES comes first, the peptide text is derived from it. Bridges are numbered along the chain shown (N, C = ends). Roman numbers before positions name the chains, in order. [ ]: non-standard residue; d: D form. X3 = CNCC[C@H](N[*:1])C(=O)[*:2]; Tle = CC(C)(C)[C@H](N)C(=O)O; dDab = NCC[C@@H](N)C(=O)O; Nle = CCCC[C@H](N)C(=O)O; Orn = NCCC[C@H](N)C(=O)O; Dab = NCC[C@H](N)C(=O)O; dAze = O=C(O)[C@H]1CCN1; Dap = NC[C@H](N)C(=O)O

How the values were obtained:
Type in all cases: cell-based
[1] = test system: human red blood cells (hRBC); assay: Hemolysis of human red blood cells; settings: red cells of human, 1 h
Experimental: (§1) Lyophilized peptides were weighed on a Microbalance (Mettler MT5) and dissolved in sterile water to a final concentration of 1 mg/mL. Stock solutions were kept at +4° C., light protected.
The peptides were tested for their hemolytic activity against human red blood cells (hRBC). Fresh hRBC were washed three times with phosphate buffered saline (PBS) and centrifuged for 10 min at 2000×g. Compounds (100 μg/mL) were incubated with 20% hRBC (v/v) for 1 h at 37° C. and shaking at 300 rpm. The final erythrocyte concentration was approximately 0.9×10^9 cells/mL. A value of 0% and 100% cell lyses, respectively, was determined by incubation of hRBC in the presence of PBS containing 0.001% acetic acid and 2.5% Triton X-100 in H2O, respectively. The samples were centrifuged, the supernatants were 8-fold diluted in PBS buffer and the optical densities (OD) were measured at 540 nm. The 100% lyses value (OD540H2O) gave an OD540 of approximately 0.5-1.0.
Percent hemolysis was calculated as follows: (OD540peptide/OD540H2O)×100%.

[2] = test system: Acinetobacter baumannii DSM 30008; settings: DSM 30008
Experimental: as §1
(§2) The in vitro antimicrobial activities of the peptides were determined in 96-well plates (Greiner, polystyrene) by the standard CLSI broth microdilution method (Clinical and Laboratory Standards Institute 2014. Performance standards for antimicrobial susceptibility testing, 24th informational supplement. Approved standard CLSI M100-S24; Clinical and Laboratory Standards Institute, Wayne, Pa.). Inocula of the microorganisms were diluted into Mueller-Hinton II (MH-cation adjusted) broth and compared with a 0.5 McFarland standard to give appr. 10^6 colony forming units (CFU)/mL. Aliquots (90 μL) of inoculate were added to 10 μL of MH-II broth+P-80 (Polysorbate 80, 0.002% final concentration, v/v) containing the peptide in serial two-fold dilutions. The following microorganisms were used to determine antibiotic activity of the peptides: Escherichia coli ATCC 25922, Klebsiella pneumoniae SSI #3010^a), Acinetobacter baumannii DSM 30008, Pseudomonas aeruginosa ATCC 27853 and the clinical isolates Escherichia coli 926415^b), Klebsiella pneumoniae 968733^b) and Acinetobacter baumannii 872842^b). Antimicrobial activities of the peptides were expressed as the minimal inhibitory concentration (MIC) in μg/mL at which no visible growth was observed after 18-20 hours of incubation at 35° C. ^a) Obtained from Statens Serum Institut (SSI), Copenhagen, Denmark^b) Obtained from International Health Management Associates, Inc. (IHMA Europe Sàrl), Epalinges, Switzerland

[3] = test system: Klebsiella pneumoniae SSI #3010; settings: SSI #3010
Experimental: as §1, §2

[4] = test system: Pseudomonas aeruginosa ATCC 27853; settings: ATCC 27853
Experimental: as §1, §2

[5] = test system: Escherichia coli ATCC 25922; settings: ATCC 25922
Experimental: as §1, §2

Row | Compound | Acinetobacter baumannii DSM 30008 MIC [2] | Klebsiella pneumoniae SSI #3010 MIC [3] | Pseudomonas aeruginosa ATCC 27853 MIC [4] | Escherichia coli ATCC 25922 MIC [5] | Hemolysis at 100 μg/mL [1]; 100 | Hemolysis at 100 μg/mL ([1]; 100 μg/mL)
1 | CCCC[C@@H]1NC(=O)[C@@H]2CCCN2C(=O)[C@H]2CCCN2C(=O)[C@H](CO)NC(=O)[C@H](C)NC(=O)[C@H](C(C)(C)C)NC(=O)[C@@H](NC(=O)[C@H](Cc2c[nH]c3ccccc23)NC(C)=O)CSSC[C@@H](C(=O)N[C@@H](CNC(=O)[C@@H](N)CCC(=O)O)C(=O)N[C@H](C(=O)N[C@@H](CCN)C(=O)N[C@H]2CCNC(=O)[C@H]([C@@H](C)O)NC(=O)[C@H](CCN)NC(=O)[C@H](CCN)NC(=O)[C@H](CC(C)C)NC(=O)[C@@H](Cc3ccccc3)NC(=O)[C@H](CCN)NC2=O)[C@@H](C)O)NC(=O)[C@H](Cc2ccc(O)cc2)NC(=O)[C@H](CO)NC1=O [Ex. 24] (Ac-WC[Tle]AS[dP]P[Nle]SYC[Dap](Glu)T[Dab][Dab][Dab][dF]L[Dab][Dab]T; disulfide 2-11; lactam 15-C) | 2 µg/mL | 4 µg/mL | 4 µg/mL | 2 µg/mL | – | 1%
2 | CCCC[C@@H]1NC(=O)[C@@H]2CCCN2C(=O)[C@H]2CCCN2C(=O)[C@H](CO)NC(=O)[C@H](C)NC(=O)[C@H](C(C)C)NC(=O)[C@@H](NC(=O)[C@H](Cc2c[nH]c3ccccc23)NC(C)=O)CSSC[C@@H](C(=O)N[C@@H](CCCN)C(=O)N[C@@H](CCN)C(=O)N[C@H]2CCNC(=O)[C@H]([C@@H](C)O)NC(=O)[C@H](CCN)NC(=O)[C@H](CCN)NC(=O)[C@H](CC(C)C)NC(=O)[C@@H](Cc3ccccc3)NC(=O)[C@H](CCN)NC2=O)NC(=O)[C@H](Cc2ccc(O)cc2)NC(=O)[C@H](CO)NC1=O [Ex. 55] (Ac-WCVAS[dP]P[Nle]SYC[Orn][Dab][Dab][Dab][dF]L[Dab][Dab]T; disulfide 2-11; lactam 14-C) | 1 µg/mL | 1 µg/mL | 2 µg/mL | 0.5 µg/mL | – | 1%
3 | CCCC[C@@H]1NC(=O)[C@@H]2CCCN2C(=O)[C@H]2CCCN2C(=O)[C@H](CO)NC(=O)[C@H](C)NC(=O)[C@H](C(C)(C)C)NC(=O)[C@@H](NC(=O)[C@H](Cc2c[nH]c3ccccc23)NC(C)=O)CC(=O)NCC[C@@H](C(=O)N[C@@H](CCCN)C(=O)N[C@@H](CCN)C(=O)N[C@H]2CCNC(=O)[C@H]([C@@H](C)O)NC(=O)[C@H](CCN)NC(=O)[C@H](CCN)NC(=O)[C@H](CC(C)C)NC(=O)[C@@H](Cc3ccccc3)NC(=O)[C@H](CCN)NC2=O)NC(=O)[C@H](Cc2ccc(O)cc2)NC(=O)[C@H](CO)NC1=O [Ex. 56] (Ac-WD[Tle]AS[dP]P[Nle]SY[Dab][Orn][Dab][Dab][Dab][dF]L[Dab][Dab]T; lactam 2-11, 14-C) | 2 µg/mL | 4 µg/mL | 4 µg/mL | 0.5 µg/mL | <1% | –
4 | CCCC[C@@H]1NC(=O)[C@@H]2CCCN2C(=O)[C@H]2CCCN2C(=O)[C@H](CO)NC(=O)[C@H](C)NC(=O)[C@H](C(C)(C)C)NC(=O)[C@H](CCN)NC(=O)[C@H](Cc2c[nH]c3ccccc23)NC(=O)[C@H](CCN)NC(=O)[C@@H](CCN)NC(=O)[C@H](CC(=O)N[C@H]2CCNC(=O)[C@H]([C@@H](C)O)NC(=O)[C@H](CCN)NC(=O)[C@H](CCN)NC(=O)[C@H](CC(C)C)NC(=O)[C@@H](Cc3ccccc3)NC(=O)[C@H](CCN)NC2=O)NC(=O)[C@H](CCN)NC(=O)[C@H](Cc2ccc(O)cc2)NC(=O)[C@H](CO)NC1=O [Ex. 64] (I: cyclo([Nle]SY[Dab]D[dDab][Dab]W[Dab][Tle]AS[dP]P) / II: [Dab][Dab][dF]L[Dab][Dab]T; amide I:5-II:N; lactam II:1-II:C) | 1 µg/mL | 2 µg/mL | 4 µg/mL | 2 µg/mL | <1% | –
5 | CCCC[C@@H]1NC(=O)[C@@H]2CCCN2C(=O)[C@H]2CCCN2C(=O)[C@H](CO)NC(=O)[C@H](C)NC(=O)[C@H](C(C)(C)C)NC(=O)[C@H](CCN)NC(=O)[C@H](Cc2c[nH]c3ccccc23)NC(=O)[C@H](CCN)NC(=O)[C@@H](CCN)NC(=O)[C@H](CCC(=O)N[C@@H](CCNC)C(=O)N[C@H]2CCNC(=O)[C@H]([C@@H](C)O)NC(=O)[C@H](CCN)NC(=O)[C@H](CCN)NC(=O)[C@H](CC(C)C)NC(=O)[C@@H](Cc3ccccc3)NC(=O)[C@H](CCN)NC2=O)NC(=O)[C@H](CCN)NC(=O)[C@H](Cc2ccc(O)cc2)NC(=O)[C@H](CO)NC1=O [Ex. 68] (I: cyclo(W[Dab][Tle]AS[dP]P[Nle]SY[Dab]E[dDab][Dab]) / II: [X3][Dab][Dab][dF]L[Dab][Dab]T; amide I:12-II:N; lactam II:2-II:C) | 2 µg/mL | 2 µg/mL | 0.5 µg/mL | 2 µg/mL | <1% | –

Further lines, with some results ahead:

Row | Acinetobacter baumannii DSM 30008 MIC [2] | Klebsiella pneumoniae SSI #3010 MIC [3] | Pseudomonas aeruginosa ATCC 27853 MIC [4] | Escherichia coli ATCC 25922 MIC [5] | Compound | Hemolysis at 100 μg/mL [1]; 100 | Hemolysis at 100 μg/mL ([1]; 100 μg/mL)
6 | 1 µg/mL | 1 µg/mL | 0.5 µg/mL | 2 µg/mL | CCCC[C@@H]1NC(=O)[C@@H]2CCCN2C(=O)[C@H]2CCCN2C(=O)[C@H](CO)NC(=O)[C@H](C)NC(=O)[C@H](C(C)(C)C)NC(=O)[C@H](CCC(=O)N[C@@H](CCN)C(=O)N[C@H](C(=O)N[C@@H](CCN)C(=O)N[C@H]2CCNC(=O)[C@H]([C@@H](C)O)NC(=O)[C@H](CCN)NC(=O)[C@H](CCN)NC(=O)[C@H](CC(C)C)NC(=O)[C@@H](Cc3ccccc3)NC(=O)[C@H](CCN)NC2=O)[C@@H](C)O)NC(=O)[C@H](Cc2c[nH]c3ccccc23)NC(=O)[C@H](CCN)NC(=O)[C@@H](CCN)NC(=O)[C@H](CCCN)NC(=O)[C@H](CCN)NC(=O)[C@H](Cc2ccc(O)cc2)NC(=O)[C@H](CO)NC1=O [Ex. 11] (I: cyclo(WE[Tle]AS[dP]P[Nle]SY[Dab][Orn][dDab][Dab]) / II: [Dab]T[Dab][Dab][Dab][dF]L[Dab][Dab]T; amide I:2-II:N; lactam II:4-II:C) | 1% | –
7 | 2 µg/mL | 0.5 µg/mL | 0.5 µg/mL | 0.5 µg/mL | CC(C)C[C@@H]1NC(=O)[C@H](CCCNC(=N)N)NC(=O)[C@@H](CCN)NC(=O)[C@H](C(C)C)NC(=O)[C@H](C)NC(=O)[C@H](Cc2ccc(O)cc2)NC(=O)[C@H](CCN)NC(=O)[C@H](Cc2c[nH]c3ccccc23)NC(=O)[C@H](CCN)NC(=O)[C@@H](CCN)NC(=O)[C@H](CCC(=O)N[C@@H](CCN)C(=O)N[C@H](C(=O)N[C@@H](CCN)C(=O)N[C@H]2CCNC(=O)[C@H]([C@@H](C)O)NC(=O)[C@H](CCN)NC(=O)[C@H](CCN)NC(=O)[C@H](CC(C)C)NC(=O)[C@@H](CC(C)C)NC(=O)[C@H](CCN)NC2=O)[C@@H](C)O)NC(=O)[C@H](CCN)NC(=O)[C@H](Cc2ccc(O)cc2)NC(=O)[C@H](CO)NC1=O [Ex. 97] (I: cyclo(AV[dDab]RLSY[Dab]E[dDab][Dab]W[Dab]Y) / II: [Dab]T[Dab][Dab][Dab][dL]L[Dab][Dab]T; amide I:9-II:N; lactam II:4-II:C) | 1% | –
8 | 2 µg/mL | 1 µg/mL | 0.25 µg/mL | 1 µg/mL | CC(C)C[C@@H]1NC(=O)[C@@H](CC(C)C)NC(=O)[C@H](CCN)NC(=O)[C@@H](NC(=O)[C@H](CCN)NC(=O)[C@@H](NC(=O)[C@H](CCN)NC(=O)CC[C@@H]2NC(=O)[C@H](CCN)NC(=O)[C@H](Cc3ccc(O)cc3)NC(=O)[C@H]([C@@H](C)O)NC(=O)[C@H](C(C)C)NC(=O)[C@@H]3CCCN3C(=O)[C@H]3CCN3C(=O)[C@H](CO)NC(=O)[C@H](C)NC(=O)[C@H](C(C)(C)C)NC(=O)[C@H](CCN)NC(=O)[C@H](Cc3c[nH]c4ccccc34)NC(=O)[C@H](CCN)NC(=O)[C@@H](CCN)NC2=O)[C@@H](C)O)CCNC(=O)[C@H]([C@@H](C)O)NC(=O)[C@H](CCN)NC(=O)[C@H](CCN)NC1=O [Ex. 101] (I: cyclo(AS[dAze]PVTY[Dab]E[dDab][Dab]W[Dab][Tle]) / II: [Dab]T[Dab][Dab][Dab][dL]L[Dab][Dab]T; amide I:9-II:N; lactam II:4-II:C) | 4% | –
